Assay results as given in patent US20230000842A1, “METHODS OF TREATING CARTILAGE DISORDERS THROUGH INHIBITION OF CLK AND DYRK” (SAMUMED, LLC, priority 2019, published 2023).

Columns and labels:
CLK3 kinase = CLK3 kinase (Homo sapiens, UniProt P49761); assay: CLK3 kinase activity assay (Z-lyte FRET); assay type: biochemical; settings: Z-lyte Ser/Thr 18 peptide, 156 μM ATP, 1 h at room temperature;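 also: kinase activity read as coumarin/fluorescein emission ratio by FRET, unphosphorylated peptide as 0% and phosphorylated peptide as 100% control, values from non-linear regression of dose-response curves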
Sequence of CLK3 kinase (P49761 whole entry): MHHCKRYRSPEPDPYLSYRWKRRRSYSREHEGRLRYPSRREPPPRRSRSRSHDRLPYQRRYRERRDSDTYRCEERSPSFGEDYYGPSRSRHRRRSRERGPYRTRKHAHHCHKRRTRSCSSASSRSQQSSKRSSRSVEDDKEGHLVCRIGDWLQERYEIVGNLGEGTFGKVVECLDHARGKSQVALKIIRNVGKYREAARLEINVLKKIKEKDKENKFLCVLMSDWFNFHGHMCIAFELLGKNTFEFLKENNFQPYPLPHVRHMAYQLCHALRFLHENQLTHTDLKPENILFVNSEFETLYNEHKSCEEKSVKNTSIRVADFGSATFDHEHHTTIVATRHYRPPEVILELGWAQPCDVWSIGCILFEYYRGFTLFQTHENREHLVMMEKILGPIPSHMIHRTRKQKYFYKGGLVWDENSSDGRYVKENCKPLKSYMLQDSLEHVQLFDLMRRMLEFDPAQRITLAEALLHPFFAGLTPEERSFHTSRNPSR

CLK2 kinase = CLK2 kinase (Homo sapiens, UniProt P49760); assay: CLK2 kinase activity assay (Z-lyte FRET); assay type: biochemical; settings: Z-lyte Ser/Thr 6 peptide, 60 μM ATP, 1 h at room temperature;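 also: FRET read-out as coumarin to fluorescein emission ratio, unphosphorylated peptide as 0% and phosphorylated peptide as 100% controls, duplicate reactions, non-linear regression fit of dose-response curves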
Sequence of CLK2 kinase (P49760 whole entry): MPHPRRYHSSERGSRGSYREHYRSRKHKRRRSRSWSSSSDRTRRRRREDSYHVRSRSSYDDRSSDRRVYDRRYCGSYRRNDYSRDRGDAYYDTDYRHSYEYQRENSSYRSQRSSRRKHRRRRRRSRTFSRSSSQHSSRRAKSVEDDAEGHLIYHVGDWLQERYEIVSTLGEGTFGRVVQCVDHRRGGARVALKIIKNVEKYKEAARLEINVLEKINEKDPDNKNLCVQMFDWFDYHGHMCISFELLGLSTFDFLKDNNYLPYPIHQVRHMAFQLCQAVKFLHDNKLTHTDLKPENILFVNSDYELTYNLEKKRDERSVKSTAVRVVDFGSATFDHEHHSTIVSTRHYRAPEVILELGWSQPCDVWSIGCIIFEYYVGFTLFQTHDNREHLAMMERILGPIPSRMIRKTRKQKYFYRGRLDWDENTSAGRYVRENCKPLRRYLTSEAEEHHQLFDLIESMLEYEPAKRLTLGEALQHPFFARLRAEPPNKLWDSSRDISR

[1] = tested on: MMP-3 levels in supernatant of chondrocytes stimulated with IL1-β; assay: Chondrocyte protection assay compound screening (MMP-3 LANCE Ultra); assay type: cell-based, human; settings: Homo sapiens, Chondrocyte, IL1-β 10 ng/mL overnight, 11-point curves from 3 μM to 0.05 nM; for Emax: read-out: Maximum % Inhibition
Summary of the method: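 Primary human chondrocytes (passage 2–5) in differentiation medium were stimulated with 10 ng/mL IL1-β for an overnight incubation at 37 °C. MMP-3 in 1:7-diluted supernatant was read by TR-FRET immunoassay against a standard curve, normalised to IL1-β-stimulated wells; EC50 and maximum % inhibition came from nonlinear regression.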

[2] = tested on: Wnt pathway activity (SW480 colon carcinoma cells stably expressing the Sp5-Luc reporter); assay: Wnt pathway activity screening assay (Sp5-Luc reporter gene assay); settings: Homo sapiens, SW480, Table 4; SW480 cells stably expressing Sp5-Luc reporter, 10-point dose-response from 10 μM, 36 to 48 hours

SMILES | EC50 (CLK3 kinase) | EC50 (CLK2 kinase) | EC50 [2] | EC50 [1] | Emax [1]
CCN(C)Cc1cncc(-c2cnc3[nH]nc(-c4nc5c(-c6cccc(F)c6)cncc5[nH]4)c3c2)c1 [compound 140] | 22 nM | 2 nM | 643 nM | 0.8 nM | 76.4%
Fc1cccc(-c2cncc3[nH]c(-c4n[nH]c5cnc(-c6cncc(OC7CCNCC7)c6)cc45)nc23)c1 [compound 152] | 33 nM | 1 nM | > 10000 nM | 1710 nM | 31.8%
CC(C)(C)C(=O)Nc1cncc(-c2ccc3[nH]nc(-c4nc5c(-c6cccnc6)cncc5[nH]4)c3c2)c1 [compound 188] | 23 nM | 3 nM | 85.4 nM | 1100 nM | 100%
CCNCc1cncc(-c2ccc3[nH]nc(-c4nc5c(-c6ccccn6)nccc5[nH]4)c3c2)c1 [compound 199] | 136 nM | 2 nM | 2130 nM | 2.4 nM | 80.9%
NC1CN(c2cncc(-c3ccc4[nH]nc(-c5nc6ccncc6[nH]5)c4c3)c2)C1 [compound 205] | 182 nM | 1 nM | 344 nM | 20.8 nM | 61.5%
FC1(F)CCN(Cc2cncc(-c3cnc4[nH]nc(-c5nc6c(-c7ccoc7)nccc6[nH]5)c4c3)c2)C1 [compound 241] | 34 nM | 4 nM | 162 nM | 0.1 nM | 87.1%
O=C(CC1CCNCC1)Nc1cncc(-c2ccc3[nH]nc(-c4nc5c(-c6ccsc6)nccc5[nH]4)c3n2)c1 [compound 248] | 66 nM | 1 nM | > 10000 nM | ≥ 3000 nM | 40.7%
Fc1ccc(-c2cncc3[nH]c(-c4n[nH]c5cnc(-c6cncc(CN7CCCC7)c6)cc45)nc23)s1 [compound 264] | 35 nM | 2 nM | 470 nM | ≥ 3000 nM | 81%
Cc1ncc(-c2ccc3[nH]nc(-c4nc5c(-c6cc(F)cc(NCCN(C)C)c6)ccnc5[nH]4)c3n2)n1C [compound 287] | 44 nM | 4 nM | 620 nM | 12.8 nM | 74.2%
CN1CCC(Oc2ccc3[nH]c(-c4n[nH]c5ccc(-c6cnn(C)c6)cc45)nc3c2)CC1 [compound 299] | 29 nM | 1 nM | 18.3 nM | 170 nM | 100%
CC#CC(=O)Nc1cc2cc(-c3cnn(C)c3)ccc2cn1 [compound 539] | 123 nM | 7 nM | 513 nM | 32.8 nM | 42.3%
CC(C)N1CCC(c2nc(C(=O)Nc3cc4cc(-c5cnn(C)c5)ccc4cn3)co2)CC1 [compound 563] | 26 nM | 5 nM | 80 nM | 57.3 nM | 72.4%
CN(C)C1CN(c2ncc(C(=O)Nc3cc4cc(-c5cnn(C)c5)ccc4cn3)s2)C1 [compound 564] | 37 nM | 2 nM | 1320 nM | 71.4 nM | 0%
CO[C@H]1CC[C@H](C(=O)Nc2cc3cc(-c4cnn(C)c4CN4CCCCC4)ccc3cn2)CC1 [compound 569] | 164 nM | 8 nM | 471 nM | ≥ 3000 nM | 0.2%
Cn1ncc(-c2ccc3cnc(NC(=O)[C@H]4CC[C@H](CO)CC4)cc3c2)c1CN1CCCCC1 [compound 570] | 143 nM | 9 nM | 594 nM | ≥ 3000 nM | 80.6%
Cn1ncc(-c2ccc3cnc(NC(=O)C4CCN(C(=O)c5ccccc5)CC4)cc3c2)c1CN1CCCCC1 [compound 571] | 318 nM | 7 nM | 706 nM | 35 nM | 51%
O=C(Nc1cc2cc(-c3cnn4c3CCNC4)ccc2cn1)c1ccc(OC(F)F)cc1 [compound 574] | 200 nM | 2 nM | 375 nM | 1920 nM | 59.5%
Cc1nnc(C(=O)Nc2cc3cc(-c4cncn4C)ccc3cn2)s1 [compound 584] | 177 nM | 6 nM | 1890 nM | 71.5 nM | 38.6%
CC(C)n1cc(C(=O)Nc2cc3cc(-c4cncn4C(C)C)ccc3cn2)cn1 [compound 586] | 23 nM | 7 nM | 115 nM | 4.6 nM | 41.7%
Cc1ncc(-c2ccc3cnc(NC(=O)C4(F)CC4)cc3c2)n1C [compound 587] | 678 nM | 8 nM | 2210 nM | 18.7 nM | –
Cc1ncc(C(=O)Nc2cc3cc(-c4cnc(C)n4C)ccc3cn2)s1 [compound 589] | 31 nM | 2 nM | 102 nM | ≥ 3000 nM | 43.5%
CN1CCN(c2cc(C(=O)Nc3cc4cc(-c5ccc(N)nc5)ccc4cn3)ccn2)CC1 [compound 596] | 42 nM | 1 nM | 710 nM | 798 nM | 39.9%
O=C(Nc1cc2cc(-c3cncc(CN4CCC(O)CC4)c3)ccc2cn1)c1ccc(F)cc1 [compound 597] | 94 nM | 9 nM | 382 nM | 2.9 nM | 3.7%
O=C(Nc1cc2cc(-c3cncc(NC4CCNCC4)n3)ccc2cn1)C1CCCCC1 [compound 601] | 59 nM | 2 nM | 319 nM | ≥ 3000 nM | 91.6%
CN1CCN(c2cc(C(=O)Nc3cc4nc(-c5cnn(C)c5)ccc4cn3)ccn2)CC1 [compound 606] | 60 nM | 4 nM | 102 nM | ≥ 3000 nM | 76.1%
CN1CCN(c2cc(C(=O)Nc3ncc4ccc(-c5cnn(C)c5)cc4n3)ccn2)CC1 [compound 607] | 135 nM | 6 nM | 468 nM | 417 nM | 79.7%
Cn1cc(-c2ccc3cnc(NC(=O)c4ccc5nccnc5c4)cc3n2)cn1 [compound 608] | 141 nM | 8 nM | 447 nM | ≥ 3000 nM | 18.3%

Now those with a lower EC50 (CLK3 kinase), led by results:

EC50 (CLK3 kinase) | EC50 (CLK2 kinase) | EC50 [2] | SMILES | EC50 [1] | Emax [1]
17 nM | 5 nM | > 10000 nM | O=C(Nc1cncc(-c2ccc3[nH]nc(-c4nc5c(-c6cccnc6)cncc5[nH]4)c3c2)c1)c1ccccc1 [compound 192] | 1.9 nM | 95.5%
16 nM | 2 nM | 4570 nM | Cc1cn(-c2cncc3[nH]c(-c4n[nH]c5ccc(-c6cncc(NC(=O)CC(C)C)c6)cc45)nc23)cn1 [compound 225] | 845 nM | 89.2%
17 nM | 2 nM | 96.6 nM | Cc1ccncc1-c1cc2c(-c3nc4c(-c5cc(F)cc(CNS(C)(=O)=O)c5)cncc4[nH]3)n[nH]c2cn1 [compound 290] | 604 nM | –
18 nM | 1 nM | 285 nM | O=C(Nc1cncc(-c2ccc3[nH]nc(-c4cc5cnccc5[nH]4)c3c2)c1)C1CCCCC1 [compound 431] | 6.7 nM | 100%
19 nM | 2 nM | 165 nM | c1cnc2cc(-c3n[nH]c4ccc(-c5cncc(CN6CCCCC6)c5)cc34)[nH]c2c1 [compound 449] | 319 nM | 100%
21 nM | 1 nM | 65.6 nM | CN1CCC(Nc2cc(C(=O)Nc3cc4cc(-c5cnn(C)c5)ccc4cn3)ccn2)CC1 [compound 555] | ≥ 3000 nM | 85.1%
20 nM | 1 nM | 54.5 nM | CC(C)OC(=O)N1CCC(n2cc(C(=O)Nc3cc4cc(-c5cnn(C)c5)ccc4cn3)cn2)CC1 [compound 562] | 88.1 nM | 34.8%
19 nM | 2 nM | 32.7 nM | CC(C)N1CCC(n2cc(C(=O)Nc3cc4cc(-c5cn(C)nn5)ccc4cn3)cn2)CC1 [compound 579] | 492 nM | 91%
13 nM | 1 nM | 34.8 nM | CC(C)n1cc(C(=O)Nc2cc3cc(-c4cncn4C)ccc3cn2)cn1 [compound 585] | 1430 nM | 77.9%
11 nM | 2 nM | 132 nM | CC(C)Nc1cncc(-c2ccc3cnc(NC(=O)c4cccc(C5CCN(C)CC5)c4)cc3c2)n1 [compound 599] | ≥ 3000 nM | 66.4%
18 nM | 2 nM | 119 nM | O=C(Nc1cc2cc(-c3cncc(NCC4(F)CNC4)n3)ccc2cn1)C1CC1 [compound 602] | 897 nM | 99.5%
7 nM | 2 nM | 13.3 nM | CN1CCC(n2cc(C(=O)Nc3cc4cc(-c5cncc6[nH]ccc56)ccc4cn3)cn2)CC1 [compound 604] | 40.1 nM | 57.4%
9 nM | 2 nM | 26.8 nM | CN1CCC(n2cc(C(=O)Nc3cc4cc(-c5cnc6cc[nH]c6c5)ccc4cn3)cn2)CC1 [compound 605] | ≥ 3000 nM | 59.9%
